Experimental data reported in EP3287466B1, “AMORPHOUS PICEATANNOL 3'-O-GLUCOSIDE AND PREPARATION METHOD THEREOF” (KPC Pharmaceuticals, Inc., priority 2015, dated 2016).
Converted amounts (≈) assume the structure as drawn.

Experiment: Solubility test (shaken 30 min to saturation, content measured by HPLC)
Type: physicochemical
Conditions: shaken for 30min to saturation; for piceatannol 3'-O-glucoside solubility, 0.9% aqueous solution of Sodium chloride: in 0.9wt% aqueous solution of sodium chloride
Method: Appropriate amounts of samples 1 to 4 and raw material sample were taken. Water, 0.9wt% aqueous solution of sodium chloride were added, respectively, and shaken for 30min, respectively, to dissolve the sample to saturation. The above solutions were taken and subjected to HPLC to measure the content of piceatannol 3'-O-glucoside in the solutions. Table 1. Comparison of the results of piceatannol 3'-O-glucoside solubility (mg/ml)

piceatannol 3'-O-glucoside solubility, 0.9% aqueous solution of Sodium chloride (30 min) | solubility at 0.5 h (water, in water, read-out: piceatannol 3'-O-glucoside solubility, Water) | piceatannol 3'-O-glucoside solubility, Water (in water, 30 min) | SMILES
 | 15.2 mg/mL (≈ 37.5 mM) |  | OC[C@H]1O[C@@H](Oc2cc(/C=C/c3cc(O)cc(O)c3)ccc2O)[C@H](O)[C@@H](O)[C@@H]1O [Sample 3, piceatannol 3'-O-glucoside]
14.31 mg/mL |  | 14.45 mg/mL | OC[C@H]1O[C@@H](Oc2cc(/C=C/c3cc(O)cc(O)c3)ccc2O)[C@H](O)[C@@H](O)[C@@H]1O [Sample 4, piceatannol 3'-O-glucoside]

Continued, compound first:

SMILES | piceatannol 3'-O-glucoside solubility, 0.9% aqueous solution of Sodium chloride (30 min) | solubility at 0.5 h (water, in water, read-out: piceatannol 3'-O-glucoside solubility, Water) | piceatannol 3'-O-glucoside solubility, Water (in water, 30 min)
OC[C@H]1O[C@@H](Oc2cc(/C=C/c3cc(O)cc(O)c3)ccc2O)[C@H](O)[C@@H](O)[C@@H]1O [Raw material sample, piceatannol 3'-O-glucoside] | 4.67 mg/mL |  | 
OC[C@H]1O[C@@H](Oc2cc(/C=C/c3cc(O)cc(O)c3)ccc2O)[C@H](O)[C@@H](O)[C@@H]1O [Sample 1, piceatannol 3'-O-glucoside] | 14.36 mg/mL |  | 
OC[C@H]1O[C@@H](Oc2cc(/C=C/c3cc(O)cc(O)c3)ccc2O)[C@H](O)[C@@H](O)[C@@H]1O [Sample 2, piceatannol 3'-O-glucoside] | 14.19 mg/mL |  | 
